# Laboratory results taken from patent publication US20080045495A1, “Treatment of Patients with Cystic Disease by Alteration of Fibrocystin Proteolysis” (BOARD OF REGENTS, THE UNIVERSITY OF TEXAS SYSTEM, priority 2006, published 2008).
# Square brackets hold non-standard residues; d marks the D form. Peptide text beside a SMILES is read from it. * marks the point of attachment. Nle = CCCC[C@H](N)C(=O)O; Cbz = O=C(OCc1ccccc1)*
# Assays:
# Assay type in all cases: cell-based, human
# [1] = tested on: fibrocystin cleavage in mIMCD3/FC cells; assay: Immunoblot (anti-V5) of fibrocystin proteolytic fragments in mIMCD3/FC cells; details: FIG. 4A
# Experimental: Cell Culture, Transfection and Generation of Stable Cell Lines—mIMCD-3 cells were plated at a density of 500,000 cells/100 mm dish, and 24 hours and 48 hours later the cells were transfected with 2 μg of pFC-V5 using Effectene (Qiagen, Valencia, Calif.). Cells were incubated for an additional 72 hours and lysed in 100 μl buffer containing Tris-buffered saline, 0.5% Triton X-100, protease inhibitor cocktail (Hoffmann-La Roche Inc., Indianapolis, Ind.). Twenty μl of the lysates were analyzed by SDS-PAGE, and immunoblot analysis was performed using HRP-conjugated anti-V5 as described previously (Hiesberger, 2005). mIMCD3/FC and mIMCD3/EGFP cell lines with inducible expression of fibrocystin and EGFP, respectively, were produced by transfecting mIMCD-3 cells with 1.5 μg pSwitch and either 1.5 μg pGeneFC or 1.5 μg pGeneEGFP. Stable transfectants were isolated after 14 days of growth in media containing hygromycin (350 μg/ml) and zeocin (300 μg/ml). To test for inducible expression, cells derived from individual clones were treated with mifepristone (10 nM) for 48 h or left untreated, and proteins were analyzed by immunoblotting using HRP-conjugated anti-FLAG. HEK-293 cells stably transfected with the muscarinic acetylcholine receptor M3 were a generous gift from Trevor Shuttleworth (University of Rochester Medical center) (Yang, 1995).
# To further investigate the proteolytic cleavage of fibrocystin, mIMCD3/FC cells were generated, in which the expression of recombinant human fibrocystin can be induced by treatment with mifepristone.
# FIG. 4 A is an image of a gel illustrating mIMCD3/FC cells were grown for 4 days and incubated with 0.1 μM thapsigargin (lane 2), 5 mM caffeine (lane 3), 75 μM dantrolene (lane 5), 200 μM ruthenium red (lane 7), or no additions (lanes 1, 4 and 6). After 2 hours, media were replaced with media lacking serum but containing the same supplements, and, in addition, 10 nM mifeprisone. Cell lysates were prepared after 24 hours and analyzed by immunoblotting using anti-V5 antibody. FIG. 4B is a graph of mIMCD-3 cells were transfected with 0.2 μg pG5-luc and either 0.2 μg pFC-GV or 0.2 μg pLDLR-GV. After 24 hours, cells were incubated in serum-free media in the presence or absence of 75 μM dantrolene. Relative luciferase activity was determined after 48 h. Data presented are mean ±SE of three separate transfections. The fibrocystin/Gal4-VP16 fusion protein is shown schematically below. […] Cells were lysed after 16 h, and extracts were analyzed by immunoblotting using anti-V5 antibody. […] Luciferase activity was measured after 12 hours. […] Cells were lysed after 16 hours, and extracts were analyzed by immunoblotting using anti-V5 antibody. […]
# [2] = tested on: fibrocystin cleavage in HEK-293 cells; assay: Luciferase reporter assay of fibrocystin cleavage (pFC-GV / pG5-luc) in HEK-293 cells; details: for cleavage of fibrocystin or stability of proteolytic fragments (luciferase activity): HEK-293, 12 hours
# Experimental: (§1) Reporter Gene Assays—mIMCD-3 cells, HEK-293 cells, or HeLa cells were plated in 6-well dishes (3×10^5 cells/well) and cotransfected with 0.05 μg phRL-TK(Int−) encoding Renilla luciferase (Promega, Madison, Wis.), 0.1 μg Photinus luciferase reporter plasmids, and 0.01-0.3 μg effector plasmids. Luciferase assays were performed as described previously (Hiesberger, 2004). Relative luciferase activity was calculated as the ratio of Photinus and Renilla luciferase.
# (§2) FIG. 4 A is an image of a gel illustrating mIMCD3/FC cells were grown for 4 days and incubated with 0.1 μM thapsigargin (lane 2), 5 mM caffeine (lane 3), 75 μM dantrolene (lane 5), 200 μM ruthenium red (lane 7), or no additions (lanes 1, 4 and 6). After 2 hours, media were replaced with media lacking serum but containing the same supplements, and, in addition, 10 nM mifeprisone. Cell lysates were prepared after 24 hours and analyzed by immunoblotting using anti-V5 antibody. FIG. 4B is a graph of mIMCD-3 cells were transfected with 0.2 μg pG5-luc and either 0.2 μg pFC-GV or 0.2 μg pLDLR-GV. After 24 hours, cells were incubated in serum-free media in the presence or absence of 75 μM dantrolene. Relative luciferase activity was determined after 48 h. Data presented are mean ±SE of three separate transfections. The fibrocystin/Gal4-VP16 fusion protein is shown schematically below. Shaded box indicates the transmembrane segment; filled boxes indicate the N-terminal signal sequence and the C-terminal Gal4-VP16 fusion protein. FIG. 4C is an image of a gel illustrating HEK-293 cells transfected with 6 μg pFC-V5, and 8 hours later incubated in serum-free media containing 1-8 mM caffeine, 0.5 μM calphostin, or no additions. Cells were lysed after 16 h, and extracts were analyzed by immunoblotting using anti-V5 antibody. FIG. 4D is a graph of HEK-293 cells transfected with 0.2 μg pFC-GV and 0.2 μg pG5-luc. After 24 hours, cells were incubated in serum-free media containing 5 mM caffeine or no additions. Luciferase activity was measured after 12 hours. Data presented are mean ±SE of three separate transfections. FIG. 4E is an image of a gel illustrating HEK-293 cells stably expressing the m3 muscarinic receptor (lanes 1-4) and untransfected HEK-293 cells (lanes 5-8) were transfected with 6 μg pFC-V5. […] Cells were lysed after 16 hours, and extracts were analyzed by immunoblotting using anti-V5 antibody.
# To quantitatively measure fibrocystin cleavage, a luciferase assay was developed that was similar to the ones employed to quantify the proteolytic cleavage of amyloid precursor protein (APP) and low density lipoprotein receptor related protein-1 (LRP1) (Cao, 2001; May, 2003). A plasmid (FC-GV) encoding the synthetic transcription factor Gal4-VP16 fused to the C-terminus of fibrocystin was generated. Proteolytic cleavage of the fibrocystin fusion protein releases Gal4-VP16, which translocates to the nucleus and activates a Gal4-responsive luciferase reporter gene (pG5-luc). Therefore, luciferase expression correlates with fibrocystin cleavage.
# To quantify fibrocystin proteolysis in response to intracellular Ca^2+ release, the luciferase reporter assay was employed. HEK-293 cells were cotransfected with the plasmids pFC-GV and pG5-luc and incubated with either 5 mM caffeine or vehicle (as a control).
# FIG. 5A is an image of a gel that illustrates HEK-293 cells were transfected with 6 μg pFC-V5.
# [3] = tested on: fibrocystin cleavage in HEK-293 cells; assay: Immunoblot (anti-V5) of fibrocystin proteolysis in HEK-293 cells transfected with pFC-V5
# Experimental: as §2
# FIG. 5A is an image of a gel that illustrates HEK-293 cells were transfected with 6 μg pFC-V5. […] Fourteen hours later, cellular proteins were extracted and analyzed by immunoblotting using anti-V5 antibody. FIG. 5B is an image of a gel mIMCD3/FC cells were grown for 4 days, and expression of fibrocystin was induced by addition of 10 nM mifepristone. After 24 hours, media were supplemented with 0.1, 0.5, or 1 μM calphostin C. Thirty hours later, cells were harvested, and proteins were analyzed by immunoblotting using anti-V5 antibody. FIG. 5C is an image of a gel illustrating HEK-293 cells were transfected with 3 μg pFC-V5 and either 3 μg of the empty vector pEF-neo (lanes 1 and 3) or 3 μg pEF-PKCαA/E (lanes 2 and 4). After 12 hours media were changed to media containing 10% FCS (lanes 1 and 2) or 0.2% BSA (lanes 3 and 4). Forty-eight hours later, cells were harvested, and proteins were subjected to immunoblotting using anti-V5 antibody. FIG. 5D is a plot illustrating HEK-293 cells transfected with 0.2 μg pG5-luc and 0.2 μg pFC-GV, pLDLR-GV and/or pEF-PKCαA/E. After 16 hours, media were changed to serum-free media containing 100 nM PMA or 500 μM Br-cAMP. Twenty-four hours later, cells were harvested, and relative luciferase activities were determined. Data are the mean ±SE of three independent transfections.
# [4] = tested on: fibrocystin cleavage in mIMCD3/FC cells; assay: Immunoblot (anti-V5) of fibrocystin proteolytic fragments in mIMCD3/FC cells; details: 30 hours; for cleavage of fibrocystin or stability of proteolytic fragments: FIG. 9
# [5] = tested on: fibrocystin cleavage in mIMCD-3 cells; assay: Luciferase reporter assay of fibrocystin cleavage (pFC-GV / pG5-luc) in mIMCD-3 cells; details: 75 μM dantrolene, serum-free media, luciferase after 48 h, FIG. 4B
# Experimental: as §1
# FIG. 4 A is an image of a gel illustrating mIMCD3/FC cells were grown for 4 days and incubated with 0.1 μM thapsigargin (lane 2), 5 mM caffeine (lane 3), 75 μM dantrolene (lane 5), 200 μM ruthenium red (lane 7), or no additions (lanes 1, 4 and 6). […] Cell lysates were prepared after 24 hours and analyzed by immunoblotting using anti-V5 antibody. […] Relative luciferase activity was determined after 48 h. […] Cells were lysed after 16 h, and extracts were analyzed by immunoblotting using anti-V5 antibody. […] Luciferase activity was measured after 12 hours. […] Cells were lysed after 16 hours, and extracts were analyzed by immunoblotting using anti-V5 antibody.
# To quantitatively measure fibrocystin cleavage, a luciferase assay was developed that was similar to the ones employed to quantify the proteolytic cleavage of amyloid precursor protein (APP) and low density lipoprotein receptor related protein-1 (LRP1) (Cao, 2001; May, 2003). […]
# [6] = 0.1, 0.5, or 1 μM calphostin C 24 hours after induction, FIG. 5B
compound,measurement,setting,value
N.N.N.N.N.N.N.N.N.N.N.N.N.N.[Cl-].[Cl-].[Cl-].[Cl-].[Cl-].[Cl-].[O-2].[O-2].[Ru+3].[Ru+3].[Ru+4] [ruthenium red],formation of FCA,[1]; pretreatment with 200 μM ruthenium red,abolished
C=C1[C@@H](C)[C@H]2[C@H](Cc3ccccc3)NC(=O)[C@]23OC(=O)/C=C/[C@H](O)CCC[C@@H](C)C/C=C/[C@H]3[C@@H]1O [Cytochalasin B],cleavage of fibrocystin or stability of proteolytic fragments (luciferase activity),"[2]; 10 μM Cytochalasin B, FIG. 11",modulated
calphostin C,caffeine-induced fibrocystin proteolysis,"[3]; 0.5 μM calphostin with caffeine, HEK-293, FIG. 4C",prevented
same,PMA-induced increase of proteolytic cleavage,"[3]; pretreatment with 0.5 μM calphostin C, 100 nM PMA, HEK-293, FIG. 5A",prevented
same,expression levels of fibrocystin,[4]; [6],did not alter
same,fibrocystin proteolysis,[4]; [6],dose-dependent inhibition
"CCCC[C@@H](C=O)NC(=O)[C@H](CC(C)C)NC(=O)[C@H](CC(C)C)NC(C)=O [ALLN, Ac-Leu-Leu-Nle-CHO] (Ac-Leu-Leu-[Nle]-aldehyde)",abundance of fibrocystin proteolytic fragments,"[3]; 10 μM ALLN versus vehicle, 14 hours, HEK-293, FIG. 8",alteration of the abundance
same,cleavage of fibrocystin or stability of proteolytic fragments,[4]; 10 μM ALLN,altered
CC(=O)O[C@H]1C(=O)[C@@]2(C)[C@H]([C@H](OC(=O)c3ccccc3)[C@]3(O)C[C@H](OC(=O)[C@H](O)[C@@H](NC(=O)c4ccccc4)c4ccccc4)C(C)=C1C3(C)C)[C@]1(OC(C)=O)CO[C@@H]1C[C@@H]2O [Taxol],cleavage of fibrocystin or stability of proteolytic fragments (luciferase activity),"[2]; Taxol in serum-free media, FIG. 10",modulated
C/C=C(/C)C(=O)O[C@H]1C(C)=C2[C@H]([C@@H]1OC(=O)CCCCCCC)[C@@](C)(OC(C)=O)C[C@H](OC(=O)CCC)[C@@]1(O)[C@H]2OC(=O)[C@@]1(C)O [thapsigargin],generation of the FCA fragment,"[1]; pretreatment with 0.1 μM thapsigargin, lysates after 24 hours",abolished
"CC(C)C[C@@H](C=O)NC(=O)[C@H](CC(C)C)NC(=O)[C@@H](NC(=O)OCc1ccccc1)C(C)C [Z-VLL-CHO, Z-Val-Leu-Leu-CHO] (Cbz-Val-Leu-Leu-aldehyde)",cleavage of fibrocystin or stability of proteolytic fragments,[4]; 15 μM Z-VLL-CHO,altered
NCCOB(c1ccccc1)c1ccccc1 [2-APB],cleavage of fibrocystin or stability of proteolytic fragments (luciferase activity),"[2]; 50 μg/ml 2-APB, FIG. 11",modulated
C/C1=C/C(=O)O[C@@H]2C[C@@H](CC[C@H](C)/C=C\CC1)O[C@@](O)([C@@H]1CSC(=O)N1)C2 [Latrunculin B],cleavage of fibrocystin or stability of proteolytic fragments (luciferase activity),"[2]; 2 μg/ml Latrunculin, FIG. 11",modulated
O=C1CN(/N=C/c2ccc(-c3ccc([N+](=O)[O-])cc3)o2)C(O)=N1 [dantrolene],increase in luciferase activity (FC-GV versus LDLR-GV),[5],abolished
same,formation of FCA,[1]; 75 μM dantrolene,abolished
"CC(C)C[C@@H](C=O)NC(=O)[C@H](CC(C)C)NC(=O)[C@H](CC(C)C)NC(=O)OCc1ccccc1 [MG-132, Carbobenzoxy-L-leucyl-L-leucyl-L-leucinal] (Cbz-Leu-Leu-Leu-aldehyde)",fibrocystin cleavage products,"[4]; 2 μM MG-132 in combination with 20 μM ATP, FIG. 7",increased presence of cleavage products
same,fibrocystin cleavage products,"[4]; 2 μM MG-132 versus vehicle, FIG. 6",increase of fibrocystin cleavage products
C[N+](C)(C)CCOC(N)=O [carbachol],fibrocystin cleavage,"[3]; 100 μM carbachol, HEK-293 cells without m3 receptor, 16 hours, FIG. 4E",only in HEK-293(m3) cells
COC(=O)Nc1nc2ccc(C(=O)c3cccs3)cc2[nH]1 [Nocodazole],cleavage of fibrocystin or stability of proteolytic fragments (luciferase activity),"[2]; 10 μg/ml Nocodazole, FIG. 11",modulated
"CCCCCCCCCCCCCC(=O)O[C@@H]1[C@@H](C)[C@@]2(O)[C@@H](C=C(CO)C[C@]3(O)C(=O)C(C)=C[C@@H]23)[C@@H]2C(C)(C)[C@]12OC(C)=O [PMA, phorbol 12-myristate 13-acetate]",increase of luciferase activity,"[2]; 100 nM PMA, serum-free media, HEK-293, 24 hours, FIG. 5D",27 fold
same,proteolytic cleavage of fibrocystin,"[3]; 100 nM PMA, HEK-293, 14 hours, FIG. 5A",marked increase
same,total expression of fibrocystin (CMV promoter),"[3]; 100 nM PMA, HEK-293, FIG. 5A",increased
